{"source": "paper PMC7217877", "about": "“N-AS-triggered SPMs are direct regulators of microglia in a model of Alzheimer’s disease” (Nature Communications, 2020)", "system": "immortalized human microglia", "assay": "ac-S565 COX2 in human microglia (western blot, immunofluorescence, Supplementary Fig 6b,c)", "type": "cell-based", "set-up": "ac-S565 COX2 (western blot): scale not given here", "settings": "for ac-S565 COX2 (western blot): sFig 6b", "experimental": "To confirm the generation and roles of N-AS in neurons, cells from E18 C57BL/6 mice were prepared as previously described. Cortices were dissected and then dissociated followed by incubation in papain (Worthington) at 37 °C for 15 min. Neurons were plated on poly-L-lysine-coated coverslips with neuronal culture medium, serum-free Neurobasal medium (Gibco) containing 2% B27 supplements (Gibco), 1 mM Glutamax supplement (Gibco), and 100 U ml^−1 streptomycin/ 100 U ml^−1 penicillin (Gibco) at 37 °C in a humidified atmosphere of 5% CO2. Aβ 1–42 (10 μM, 24 h, Invitrogen, 03112) was exposed to neurons and the cells were analyzed for the generation and roles of N-AS. Primary astrocyte cultures were prepared from C57BL/6 mice as described previously. In brief, after removal of the meninges, postnatal day 7 (P7) mouse brain tissues were minced and incubated in a rocking water bath at 37 °C for 30 min in the presence of 0.25% trypsin-EDTA (Sigma-Aldrich). Enzyme-digested dissociated cells were triturated with astrocyte-specific medium (DMEM/F12 containing 10% FBS and 1% penicillin-streptomycin) and centrifuged at 155×g for 8 min. The pellet was resuspended in astrocyte-specific medium and passed through a 40-μm cell strainer. The filtrate was allowed pre-adherence for 30 min to remove any contamination from fibroblasts before being seeded in dishes and the addition of astrocyte-specific medium. To split the cells, Ara-C was added to the dishes and they were then placed in a heated shaker for 6–7 h. The medium was removed from the dishes, and trypsin-EDTA was added to the dish and incubated at 37 °C for 5–10 min. After centrifugation at 155×g for 8 min, the supernatant was removed, and the astrocytes were maintained in culture by feeding […] with astrocyte-specific medium. Primary microglia cultures were prepared from C57BL/6 mice as described previously. In brief, the cortices of 2-months-old mice were minced in Hibernate A (Gibco)/B27 supplements (Gibco) medium and dissociated using papain (Worthington) solution. After tissue trituration, cells were separated by Optiprep (Sigma-Aldrich) density gradient centrifugation. Microglia were plated with microglia-specific medium (DMEM/F12 containing 10% FBS and 1% penicillin-streptomycin). The immortalized human microglia (Applied Biologics Materials, T0251) were cultured in PriGrow III (Applied Biologics Materials, TM003) (supplemented with 10% FBS and 1% penicillin-streptomycin) at 37 °C in a humidified atmosphere of 5% CO2. […] The human microglia treated with Aβ 1–42 and/or zileuton was incubated with N-AS (2.5 μM, 2 h, Sigma-Aldrich, 01912), and were analyzed for the generation and roles of N-AS.\nThioflavin S (Sigma-Aldrich) staining was carried out according to previously described procedures. We used 6E10 (mouse, 1:100, Signet, SIG39300), anti-20G10 (mouse, 1:1000, provided by D. R. Howlett, GlaxoSmithKline, Harlow, Essex, UK) for Aβ42, anti-G30 (rabbit, 1:1000, provided by D. R. Howlett) for Aβ40, SMA (mouse, 1:400, Sigma-Aldrich, A2547), AT8 (mouse, 1:500, Thermo Fisher Scientific, MN1020), Caspase-3 (mouse, 1:200, Novus Biologicals, NB100-56708), ac-S565 (rabbit, 1:100), COX2 (mouse, 1:250, Thermo Fisher Scientific, 35-8200), Iba1 (rabbit, 1:500, Wako, 019-19941 and goat, Abcam, ab5076), NeuN (mouse, 1:500, Millipore, MAB177), GFAP (rabbit, 1:500, Dako, N1506 and chicken, 1:500, Abcam, ab4674), and Lamp1 (mouse, 1:200, Abcam, ab24170). The sections were analyzed with a laser-scanning confocal microscope (FV3000; Olympus) or with a BX51 microscope (Olympus). MetaMorph software (Molecular Devices) was used to quantification. Three-dimensional reconstruction of microglia was recorded and analyzed using IMARIS software (Bitplane)[11]. […]", "note": "“And” between values parts separate entries of the source, which are not always exact repeats. Identical values can stand only once.", "data": [{"smiles": "CC(=O)SCCNC(=O)CCNC(=O)[C@H](O)C(C)(C)COP(=O)(O)OP(=O)(O)OC[C@H]1O[C@@H](n2cnc3c(N)ncnc32)[C@H](O)[C@@H]1OP(=O)(O)O", "note": "[Acetyl-CoA, acetyl-CoA]", "values": [{"measurement": "ac-S565 COX2 (western blot)", "setting": "human microglia, Ab 50mM +", "value": "1.441 and 1.037 and 1.136 and 1.4813 and 1.401 and 1.309"}]}, {"smiles": "CCCCCCCCCCCCC/C=C/[C@@H](O)[C@H](CO)NC(C)=O", "note": "[N-AS, N-((2S,3R,E)-1,3-Dihydroxyoctadec-4-en-2-yl)acetamide]", "values": [{"measurement": "S565 acetylation of COX2, in words", "setting": "Aβ-affected human microglia + N-AS", "value": "restored"}, {"measurement": "ac-S565 COX2 (western blot)", "setting": "human microglia, Ab 50mM +", "value": "1.839 and 1.211 and 1.367 and 1.737 and 1.941 and 1.552"}, {"measurement": "ac-S565 COX2 (immunofluorescence)", "setting": "human microglia, Ab 50mM +, sFig 6c", "value": "2.003 and 2.188 and 1.708 and 1.496 and 1.357 and 1.768"}, {"measurement": "ac-S565 COX2 (western blot)", "setting": "human microglia, Ab 50mM -", "value": "1.105 and 1.597 and 1.621 and 1.1016 and 1.489 and 0.9364"}]}]}
